Patent US20070134720A1, “Method of detecting effect of controlling synoviolin activity” (priority 2003, published 2007)

Legend:
[1] = target: T1, synoviolin activity of ubiquitinating P4HA1 (Homo sapiens, UniProt Q86TM6); test: Inhibition of ubiquitination activity using energy transfer of XL665-Eu(K) (HTRF method); assay type: biochemical; details: Eu(K)-labeled ubiquitin, GST-P4HA1 substrate, compared with binding inhibition
T1 construct: comprises a MBP-fused synoviolin that lacks the transmembrane segment (TM) (synoviolin dTM); made in house; host or cells: Escherichia coli
T1 sequence (Q86TM6 246-617 limits assumed): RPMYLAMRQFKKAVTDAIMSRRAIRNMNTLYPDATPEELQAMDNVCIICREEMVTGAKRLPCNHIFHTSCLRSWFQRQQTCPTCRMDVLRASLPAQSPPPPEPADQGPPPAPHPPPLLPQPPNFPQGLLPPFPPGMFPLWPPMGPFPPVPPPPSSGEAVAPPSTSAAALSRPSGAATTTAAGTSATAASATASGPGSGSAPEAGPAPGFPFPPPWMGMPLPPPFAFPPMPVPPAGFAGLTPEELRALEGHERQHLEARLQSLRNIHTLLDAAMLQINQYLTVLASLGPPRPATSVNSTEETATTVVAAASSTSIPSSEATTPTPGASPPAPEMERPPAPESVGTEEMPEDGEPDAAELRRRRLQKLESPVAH
Description: A method of high-throughput screening (HTS) for compounds that inhibit the synoviolin activity of ubiquitinating P4HA1 was investigated. A system was designed in which ubiquitination by Eu(K)-labeled ubiquitin was conducted using P4HA1 expressed as a GST-fused protein as a substrate. When P4HA1 underwent Eu(K)-labeled ubiquitination, energy transfer occurred between an XL665-labeled anti-GST antibody and an Eu(K)-labeled ubiquitin, and fluorescence was detected.
A standard reaction mixture comprising 60 ng MBP-synoviolin-His, 15 ng GST-P4HA1, 15 ng E1 (Boston Biochem), 200 ng His-E2, 6.25 nM Eu(K)-labeled ubiquitin (CIS bio international), 5 mM MgCl2, 2 mM ATP, 1 mM DTT, 0.1% BSA, 0.3% DMSO, and a test compound in 15 μL of a 20 mM HEPES (pH 7.5) solution was prepared using a 384-well plate. After a 30 minute reaction at 37° C., 5 μL of 0.5 M EDTA was added to terminate the reaction. To this was added 5 μL of 20 mM HEPES solution containing an XL665-labeled […] antibody (0.025 μg) and 1 M K, and the mixture was left to stand overnight at room temperature, and the fluorescence was measured using RUBYstar™.

[2] = target: T1, synoviolin activity of ubiquitinating P4HA1; test: Inhibition of ubiquitination activity using ELISA; assay type: biochemical; details: anti-GST capture, anti-ubiquitin detection, OD 450 nm
Description: A 96-well ELISA plate was adsorbed with an anti-GST antibody at 4° C. overnight and then blocked with 5% BSA/PBS solution at room temperature until it was used. The plate was washed twice before use with 300 μL of PBS containing 0.3% BSA (PBSA).
A standard reaction mixture comprising 80 ng MBP-synoviolin-His, 40 ng GST-P4HA1, 15 ng E1, 200 ng His-E2, 5 mM MgCl2, 2 mMATP, 1 mM DTT, 0.1% BSA, 0.3% DMSO, and a test compound in 30 μL of 50 mM HEPES (pH 7.5) solution was prepared in a reaction tube. After a 30 minute reaction at room temperature, 70 μL of a solution containing 70 mM EDTA and 50 mM HEPES was added to terminate the reaction. This (30 μl) was added to a plate previously containing 70 μL PBSA and incubated at room temperature for 1 hour. After washing three times with 300 μL of PBSA, 100 μL of a mouse anti-ubiquitin antibody solution diluted 1:5000 in PBSA was added, and the mixture was incubated at room temperature for 1 hour. After three washes with 300 μL of PBSA, 100 μL of a peroxidase-labeled anti-mouse IgG solution diluted 1:10000 in PBSA was added, and the mixture was incubated at room temperature for 1 hour. […] When a sufficient coloration was observed, 1 M phosphoric acid was added to terminate the reaction, and the optical density at 450 nm was measured.

concentration inhibiting the ubiquitination of P4HA1, relative to that for inhibition of the binding [1]: 20 times lower
IC50 of inhibition of the ubiquitination of P4HA1 [2]: 55 µg/mL
Sequence: DNVCIICREEMVTGAKRLDCN [SEQ ID NO: 5]
